Assay results as given in patent US8367039B2, “Compounds for the diagnosis of diseases associated with VCAM expression” (Guerbet, priority 2007, dated 2013).

Target: T1, VCAM-1 (Mus musculus, UniProt P29533)
T1 construct: from tissue; host or cells: liver of Balb/c mice in vivo, Con-A-induced hepatitis
T1 sequence (P29533 25-739): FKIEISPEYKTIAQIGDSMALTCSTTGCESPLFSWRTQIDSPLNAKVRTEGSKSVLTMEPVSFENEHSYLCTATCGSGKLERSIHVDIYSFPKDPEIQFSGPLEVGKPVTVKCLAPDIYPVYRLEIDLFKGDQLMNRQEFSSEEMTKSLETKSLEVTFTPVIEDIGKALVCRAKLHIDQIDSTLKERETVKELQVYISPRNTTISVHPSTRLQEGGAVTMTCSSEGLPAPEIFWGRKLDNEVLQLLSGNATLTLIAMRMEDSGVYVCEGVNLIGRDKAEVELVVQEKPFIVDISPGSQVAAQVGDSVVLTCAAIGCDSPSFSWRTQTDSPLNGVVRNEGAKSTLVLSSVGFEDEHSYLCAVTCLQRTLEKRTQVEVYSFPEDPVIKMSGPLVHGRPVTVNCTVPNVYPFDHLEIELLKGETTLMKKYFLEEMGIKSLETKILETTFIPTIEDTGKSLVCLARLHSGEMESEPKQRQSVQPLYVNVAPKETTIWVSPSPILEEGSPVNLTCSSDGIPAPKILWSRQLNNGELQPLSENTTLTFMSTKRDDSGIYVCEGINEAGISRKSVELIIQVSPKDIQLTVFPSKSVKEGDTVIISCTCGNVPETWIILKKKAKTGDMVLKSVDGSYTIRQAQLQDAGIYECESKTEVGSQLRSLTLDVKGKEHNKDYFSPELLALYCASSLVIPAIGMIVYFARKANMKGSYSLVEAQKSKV
Experiment: MRI in vivo on a model of Con-A-induced hepatitis in mice
Details: 100 μmol Gd/kg i.v., FIG. 3
Method: Before the MRI acquisition, the mice are anesthetized with pentobarbital. All the experiments are carried out on a 200 MHz Bruker spectrometer (4.7 T) equipped with a vertical magnet and with a microimaging system.
The hepatitis is induced by i.v. injection of 20 mg/kg of Con-A in Balb/c mice weighing approximately 26 g. The literature reports that VCAM-1 is massively expressed in the liver between 4 and 8 hours after the injection of Con-A. The MRI protocol is the following: (1) the precontrast MRI begins 4h30 after the injection of Con-A; (2) the contrast product is injected at the dose of 100 μmol Gd/kg approximately 5 h after the injection of Con-A; (3) several post-contrast acquisitions are carried out for 1 h30 every 7 minutes. […]
For the two models, the SI values are measured in various regions of interest (at the level of the arterial wall of the abdominal aorta or whole liver) using the OSIRIS image analysis software. […] The SI value is measured on all the image slices where the arterial wall and the liver are visible. […] The increase in the signal/noise ratio (% ΔSNR) is calculated according to the following equation: % ΔSNR=[(SIpost/SDnoise)−(SIpre/SDnoise)]/[SIpre/SDnoise]×100 where SDnoise is the standard deviation of the noise measured on a region outside the animal.

change in signal/noise ratio (% ΔSNR) of the liver over time, hepatitis versus healthy mouse: substantially identical
Structure (SMILES): O=C([O-])CN1CCN(CC(=O)[O-])CCN(CC(=O)O)CCN(CC(=O)[O-])CC1.[Gd+3] [Gd-DOTA]
